The text below walks through data of ChEMBL document CHEMBL4610104, “Dipleosporalones A and B, Dimeric Azaphilones from a Marine-Derived Pleosporales sp. Fungus” (J Nat Prod, 2020).

The subject of assay [1] is MCF7. Kind of assay: Cytotoxicity against human MCF7 cells by MTT assay. The format is functional, cell-based. In general terms: Tetrazolium dyes change colour on reduction, which living cells bring about.
The test system of assay [2] is MGC-803. Kind of assay: Cytotoxicity against human MGC803 cells by MTT assay. The format is functional, cell-based.
Assay [3] relates to MCF7. Put plainly: Potency index, ratio of pinophilin-B IC50 to test compound IC50 against human MCF7 cells. The format is functional.
Assay [4] concerns A549. Kind of assay: Potency index, ratio of pinophilin-B IC50 to test compound IC50 against human A549 cells. The format is functional.
For assay [5], the system named is MDA-MB-231. Put plainly: Cytotoxicity against human MDA-MB-231 cells by MTT assay. The format is functional, cell-based.
The test system of assay [6] is MDA-MB-231. Kind of assay: Potency index, ratio of pinophilin-B IC50 to test compound IC50 against human MDA-MB-231 cells. The format is functional.
In assay [7] the test system is A549. Put plainly: Cytotoxicity against human A549 cells by MTT assay. The format is functional, cell-based.
Assay [8] has as its system MGC-803. Put plainly: Potency index, ratio of pinophilin-B IC50 to test compound IC50 against human MGC803 cells. The format is functional.
Assay [9] deals with HeLa. Put plainly: Potency index, ratio of pinophilin-B IC50 to test compound IC50 against human HeLa cells. The format is functional.
For assay [10], the system named is HeLa. Put plainly: Cytotoxicity against human HeLa cells by MTT assay. The format is functional, cell-based.

The structures appear in SMILES notation.

As a reminder, the IC50 is the concentration that gives 50% inhibition. For `Cc1cc(O)cc(O)c1C(=O)O[C@H]1[C@@H]2COC([C@H]3[C@H](CO)[C@H]4C(=O)[C@@](C)(O)[C@@H](OC(=O)c5c(C)cc(O)cc5O)[C@@H]5COC(/C=C/CO)=C[C@]453)=CC2=CC(=O)[C@@]1(C)O`, the IC50 in the assay on MCF7 [1] turned out to be 2.1 µM; with MGC-803 [2] it was 1.3 µM; in the assay with MDA-MB-231 [5], 1.9 µM; in the assay with A549 [7], 1 µM; in the assay with HeLa [10] it was 2.5 µM. The “Ratio IC50” value in the assay on MCF7 [3], in the assay on A549 [4], in the assay with MDA-MB-231 [6], in the assay on MGC-803 [8] and with HeLa [9] was 30 - 90 each time.
Regarding `Cc1cc(O)cc(O)c1C(=O)O[C@H]1[C@@H]2COC([C@H]3[C@H](CO)[C@@H](CO)[C@@H]3C3=CC4=CC(=O)[C@@](C)(O)[C@@H](OC(=O)c5c(C)cc(O)cc5O)[C@@H]4CO3)=CC2=CC(=O)[C@@]1(C)O`, the IC50 in the assay on MCF7 [1] was over 10 µM; in the assay on MGC-803 [2], 2 µM; in the assay on MDA-MB-231 [5] it was 3.8 µM; with A549 [7] it was 3.5 µM; with HeLa [10] it was 3 µM. In addition, the “Ratio IC50” value in the assay with MCF7 [3], in the assay with A549 [4], in the assay with MDA-MB-231 [6], in the assay on MGC-803 [8] and with HeLa [9] was 30 - 90 in each case.
For the compound `Cc1cc(O)cc(O)c1C(=O)O[C@H]1[C@@H]2COC(/C=C/CO)=CC2=CC(=O)[C@@]1(C)O` [PINOPHILIN B], the IC50 came to 95 µM with MCF7 [1]; 84 µM with MGC-803 [2]; 97 µM with MDA-MB-231 [5]; 89 µM in the assay on A549 [7]; 78 µM with HeLa [10].
